# Measured values reported in US20060229364A1, “Antiviral compositions and methods of use” (3M Innovative Properties Company, priority 2005, published 2006).
# Tested on: Type 1 herpes virus
# Experiment: Another mouse study with neat ester (Example 4), treatment from 24 hours post-virus inoculum
# Format: in vivo, mice
# Details: neat composition applied 24 hours post-virus inoculum, 3 times daily for 5 days
# Source text: Each lesion was assigned a score ranging from 0 (normal skin) to 4 (maximal lesion intensity) defined as “Lesion score”, and two measurements, a vertical length and a horizontal length, were taken of each lesion daily from days 1 through 10. These measurements were multiplied together and the “square area” recorded, defined as “Lesion Size”. The lesion scoring was done by technicians who are unaware of which group of animals they are examining in order to eliminate bias. The occurrence of new, satellite, lesions (e.g., another lesion located anywhere other than the site of the intial lesion) were also noted during this 10-day period. The mean of the lesions score and the lesions size was calculated based on the average of the measurements taken on the eight mice.
# Another mouse study was performed using propylene glycol monolaurate (Capmul PG-12) in a neat composition. The ester was applied 24 hours post-virus inoculum 3 times daily for 5 days. […] The mean day 7 lesion size was 3.1 mm2 compared to 64.4 mm2 for petrolatum vehicle control. The day 7 mean lesion score was 0.2 compared to 1.5 for a control sample containing petrolatum without an antimicrobial.
substance,measurement,value
propylene glycol monolaurate,day 7 mean lesion score,0.2
same,mean day 7 lesion size,3.1 mm2
same,reduction in lesion score and size compared to a placebo ointment (in words),statistically significant reduction
